Data taken from ChEMBL document CHEMBL4364326, “Design, synthesis and biological evaluation of 2-(4-alkoxy-3-cyano)phenyl-6-oxo-1,6-dihydropyrimidine-5-carboxylic acid derivatives as novel xanthine oxidase inhibitors” (Eur J Med Chem, 2019).
The source made the active and inactive calls. No cut-off for these calls is given here.

Columns and labels:
[1] = biological target: T1, Xanthine dehydrogenase/oxidase (Bos taurus, UniProt P80457); assay: Mixed type inhibition of bovine xanthine oxidase assessed as increase in Km with decrease in Vmax of the enzyme using xanthine as substrate preincubated with enzyme for 15 mins followed by substrate addition and measured every 30 secs for 2 mins by Lineweaver-Burk plot analysis; details: cattle
T1 sequence (P80457 whole entry): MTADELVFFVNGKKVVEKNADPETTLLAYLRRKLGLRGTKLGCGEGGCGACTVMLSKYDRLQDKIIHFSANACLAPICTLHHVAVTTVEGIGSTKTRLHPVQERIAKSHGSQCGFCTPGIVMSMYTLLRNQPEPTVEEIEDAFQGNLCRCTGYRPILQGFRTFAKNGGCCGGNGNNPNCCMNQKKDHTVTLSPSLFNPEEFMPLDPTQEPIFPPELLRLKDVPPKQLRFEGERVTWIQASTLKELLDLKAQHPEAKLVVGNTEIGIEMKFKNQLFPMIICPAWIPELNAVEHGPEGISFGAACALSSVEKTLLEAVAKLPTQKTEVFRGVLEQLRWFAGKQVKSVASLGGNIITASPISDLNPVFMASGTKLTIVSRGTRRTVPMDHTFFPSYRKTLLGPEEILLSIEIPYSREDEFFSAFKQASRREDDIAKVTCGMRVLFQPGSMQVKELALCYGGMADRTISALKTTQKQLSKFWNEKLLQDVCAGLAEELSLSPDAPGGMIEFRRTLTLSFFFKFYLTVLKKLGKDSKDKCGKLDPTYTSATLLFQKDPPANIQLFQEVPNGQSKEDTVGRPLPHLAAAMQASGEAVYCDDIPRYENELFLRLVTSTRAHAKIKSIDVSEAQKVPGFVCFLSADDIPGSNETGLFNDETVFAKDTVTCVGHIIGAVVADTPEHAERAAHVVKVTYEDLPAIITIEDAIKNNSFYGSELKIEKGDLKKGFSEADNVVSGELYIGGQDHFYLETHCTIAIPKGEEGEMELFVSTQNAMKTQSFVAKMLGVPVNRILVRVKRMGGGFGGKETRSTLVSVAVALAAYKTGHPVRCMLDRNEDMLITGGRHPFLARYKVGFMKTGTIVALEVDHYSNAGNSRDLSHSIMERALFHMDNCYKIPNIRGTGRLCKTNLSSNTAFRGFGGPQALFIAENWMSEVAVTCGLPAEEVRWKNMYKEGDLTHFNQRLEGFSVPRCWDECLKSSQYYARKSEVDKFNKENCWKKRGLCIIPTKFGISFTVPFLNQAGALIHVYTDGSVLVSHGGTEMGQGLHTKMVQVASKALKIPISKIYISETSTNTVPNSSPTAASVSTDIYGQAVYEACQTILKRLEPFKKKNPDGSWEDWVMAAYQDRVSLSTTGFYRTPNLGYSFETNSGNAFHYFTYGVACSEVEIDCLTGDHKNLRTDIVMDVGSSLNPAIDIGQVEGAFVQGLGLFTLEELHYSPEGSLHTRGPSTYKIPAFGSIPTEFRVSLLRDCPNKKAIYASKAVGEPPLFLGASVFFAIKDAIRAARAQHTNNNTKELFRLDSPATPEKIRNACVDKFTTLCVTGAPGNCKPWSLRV

Rattus norvegicus [2] = assay: Anti-hyperuricemic activity in potassium oxonate-induced acute hyperuricemia Sprague-Dawley rat model assessed as reduction in uric acid level in serum at 5 mg/kg, ig pretreated for 1 hr followed by potassium oxonate challenge and measured at 2 hrs post drug administration; assay type: functional, organism-based
[3] = Acute oral toxicity in KM mouse assessed as change in behavior at 2000 mg/kg measured for 24 hrs; assay type: organism-based; details: in vivo
[4] = Acute oral toxicity in KM mouse measured for 24 hrs by OCED guideline method; details: in vivo
Rattus norvegicus [5] = assay: Anti-hyperuricemic activity in potassium oxonate-induced acute hyperuricemia Sprague-Dawley rat model assessed as reduction in AUC of uric acid in serum at 5 mg/kg, ig pretreated for 1 hr followed by potassium oxonate challenge and measured at 2 hrs post drug administration (reference value: 23%); assay type: functional; details: po
[6] = biological target: T1, Xanthine dehydrogenase/oxidase; assay: Inhibition of bovine xanthine oxidase assessed as reduction in uric acid formation using xanthine as substrate preincubated with enzyme for 15 mins followed by substrate addition and measured every 30 secs for 2 mins by spectrophotometric method
[7] = biological target: T1, Xanthine dehydrogenase/oxidase; assay: Potency index, Ratio of allopurinol IC50 to compound IC50 for bovine xanthine oxidase using xanthine as substrate by spectrophotometry; details: cattle
Rattus norvegicus [8] = assay: Anti-hyperuricemic activity in potassium oxonate-induced acute hyperuricemia Sprague-Dawley rat model assessed as reduction in AUC of uric acid in serum at 10 mg/kg, ig pretreated for 1 hr followed by potassium oxonate challenge and measured at 2 hrs post drug administration (reference value: 23%); assay type: functional; details: po

SMILES | IC50 [6] | also measured
CC(C)CCOc1ccc(-c2ncc(C(=O)O)c(=N)[nH]2)cc1C#N | – | inhibition (INH) [1]: Active; inhibition (Rattus norvegicus [2]): Active; Activity [3]: Non-Toxic; LD50 at 24 h [4]: > 2000 mg/kg; inhibition in vivo at 5 mg/kg (Rattus norvegicus [5]): 36.1%
CC(C)Oc1ccc(-c2ncc(C(=O)O)c(=O)[nH]2)cc1C#N | 0.0916 µM | –
Cc1nc(-c2ccc(OCCC(C)C)c(C#N)c2)[nH]c(=O)c1C(=O)O | 0.54 µM | –
Oc1ncnc2[nH]ncc12 [ALLOPURINOL] | – | inhibition in vivo at 10 mg/kg (Rattus norvegicus [8]): 38.7%
CC(C)=CCOc1ccc(-c2ncc(C(=O)O)c(=O)[nH]2)cc1C#N | 0.0388 µM | –
Cc1nc(-c2ccc(OCC(C)C)c(C#N)c2)sc1C(=O)O [FEBUXOSTAT] | – | inhibition in vivo at 5 mg/kg (Rattus norvegicus [5]): 50.8%
CC(C)COc1ccc(-c2ncc(C(=O)O)c(=O)[nH]2)cc1C#N | 0.0609 µM | –
C=C(C)COc1ccc(-c2nc(C)c(C(=O)O)c(=O)[nH]2)cc1C#N | 0.568 µM | –
C=C(C)COc1ccc(-c2ncc(C(=O)O)c(=O)[nH]2)cc1C#N | 0.0336 µM | –
CC(C)CCOc1ccc(-c2ncc(C(=O)O)c(=O)[nH]2)cc1C#N | 0.025 µM | –

The next lines start with results.

IC50 [6] | SMILES | also measured
0.0382 µM | N#Cc1cc(-c2ncc(C(=O)O)c(=O)[nH]2)ccc1OCc1ccc(F)cc1 | –
0.0181 µM | C=C(C)COc1ccc(-c2ncc(C(=O)O)c(=N)[nH]2)cc1C#N | Ratio IC50 [7]: 419
0.185 µM | Cc1nc(-c2ccc(OCc3ccc(Br)cc3)c(C#N)c2)[nH]c(=O)c1C(=O)O | –
0.197 µM | CC(C)(C)c1ccc(COc2ccc(-c3ncc(C(=O)O)c(=O)[nH]3)cc2C#N)cc1 | –
0.0387 µM | N#Cc1cc(-c2ncc(C(=O)O)c(=O)[nH]2)ccc1OCc1ccccc1 | –
0.0499 µM | N#Cc1cc(-c2ncc(C(=O)O)c(=O)[nH]2)ccc1OCc1ccc(Cl)cc1 | –
0.0271 µM | N#Cc1cc(-c2ncc(C(=O)O)c(=N)[nH]2)ccc1OCc1ccc(Br)cc1 | –
0.0339 µM | Cc1ccc(COc2ccc(-c3ncc(C(=O)O)c(=N)[nH]3)cc2C#N)cc1 | –
0.159 µM | Cc1ccc(COc2ccc(-c3nc(C)c(C(=O)O)c(=O)[nH]3)cc2C#N)cc1 | –
0.0354 µM | Cc1ccc(COc2ccc(-c3ncc(C(=O)O)c(=O)[nH]3)cc2C#N)cc1 | –
0.0298 µM | N#Cc1cc(-c2ncc(C(=O)O)c(=O)[nH]2)ccc1OCc1ccc(Br)cc1 | –
0.0811 µM | C=CCOc1ccc(-c2ncc(C(=O)O)c(=O)[nH]2)cc1C#N | –
